Some test systems named below: DLD-1 colon; SNB-75 CNS; MOLT-4 leukemia; SK-MEL-2 melanoma; CCRF-CEM leukemia; DMS 114 small cell lung; HCT-116 colon; HOP-62 NSCLC; HS 578T breast; PC-3 prostate; DU-145 prostate.
Holding throughout (experiment): inhibition of tumour cell growth, NCI panel, 48 h

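Results reflect a 48-hour exposure of cells in 96-well plates to compound at five concentrations. Definition used: TGI = concentration required for complete inhibition of growth.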

On to `CCC12C=CCN3CCC4(C(=C(C(=O)OC)C1)Nc1ccccc14)[C@H]32` (some centres not stated), for which the TGI in the test on DLD-1 colon is greater than 100 µM; with SNB-75 CNS, 69 µM; in the test on MOLT-4 leukemia it was 93 µM; in the test on SK-MEL-2 melanoma it was 52 µM; with CCRF-CEM leukemia, 79.5 µM; in the test on DMS 114 small cell lung, 49.5 µM. The same molecule displayed a TGI in the test with HCT-116 colon greater than 100 µM.
For `CCN1CCC(O)(/C=C/c2ccc(Cl)cc2)C(C(=O)/C=C/c2ccc(Cl)cc2)C1` (configuration not stated), the TGI is 33.8 µM in the test with DLD-1 colon; 74.5 µM with SNB-75 CNS; greater than 100 µM with MOLT-4 leukemia; greater than 100 µM in the test on SK-MEL-2 melanoma; greater than 100 µM in the test with CCRF-CEM leukemia; greater than 100 µM in the test with HOP-62 NSCLC. The figures for the TGI in the test on DMS 114 small cell lung and with HCT-116 colon were greater than 100 µM and 13.4 µM, respectively.
In the case of `C#CC1(O)CC(c2ccccc2)N(C)C(c2ccccc2)C1` (configuration not stated), the TGI with SNB-75 CNS, in the test on MOLT-4 leukemia, in the test on SK-MEL-2 melanoma, in the test on CCRF-CEM leukemia, with HOP-62 NSCLC and in the test with DMS 114 small cell lung was greater than 100 µM in each case. The molecule also displayed a TGI with HCT-116 colon of 32.4 µM.
As to `O=c1cc(-c2cccc(Br)c2)[nH]c2cc3c(cc12)OCO3`, the TGI in the test on DLD-1 colon was 31.2 µM; in the test on SNB-75 CNS it was 10.5 µM; with MOLT-4 leukemia, greater than 100 µM; in the test with SK-MEL-2 melanoma, 6.67 µM; with CCRF-CEM leukemia it was greater than 100 µM; in the test on HS 578T breast it was 26 µM. For the same molecule, the TGI with PC-3 prostate was greater than 100 µM; with HOP-62 NSCLC, 4.8 µM; with DU-145 prostate, 18.1 µM; in the test on DMS 114 small cell lung, 11 µM; in the test with HCT-116 colon, 13.3 µM.
For `COc1cc2c(cc1OC)C(=O)N1CCCC1C(=O)S2` (configuration not stated), the TGI with DLD-1 colon, in the test with MOLT-4 leukemia, with SK-MEL-2 melanoma, in the test on CCRF-CEM leukemia, in the test on HOP-62 NSCLC and in the test on DMS 114 small cell lung was greater than 100 µM in each case. This molecule displayed a TGI with HCT-116 colon greater than 100 µM.
Regarding `NCCSc1nc(N)c2ncn(C3OC(CO)C(O)C3O)c2n1` (configuration not stated), the TGI in the test on DLD-1 colon, with SNB-75 CNS, in the test with MOLT-4 leukemia, in the test on SK-MEL-2 melanoma, in the test on CCRF-CEM leukemia and in the test with HOP-62 NSCLC was greater than 100 µM in each case. Also, the TGI with DMS 114 small cell lung and with HCT-116 colon was greater than 100 µM each time.
For `COC1=CC(=O)C2C(C1=O)[C@@H]1c3ccccc3OC[C@H]21` (some centres not stated), the TGI in the test on DLD-1 colon, in the test on SNB-75 CNS, with MOLT-4 leukemia, with SK-MEL-2 melanoma, in the test on CCRF-CEM leukemia and in the test with HOP-62 NSCLC was greater than 100 µM throughout. In addition, the TGI in the test on DMS 114 small cell lung and in the test on HCT-116 colon was greater than 100 µM throughout.
Consider `CCOC(=O)C1C(=O)c2cccc(OC)c2C2COC(=O)N12` (configuration not stated), for which the TGI in the test on DLD-1 colon, with SNB-75 CNS, in the test with MOLT-4 leukemia, with SK-MEL-2 melanoma, with CCRF-CEM leukemia and in the test with HOP-62 NSCLC was greater than 100 µM in each case. The TGI in the test with DMS 114 small cell lung and in the test with HCT-116 colon was greater than 100 µM each time.
In the case of `O=c1[nH]c(Br)nc2c(N3CCCCC3)c[nH]c12`, the TGI with DLD-1 colon, in the test with SNB-75 CNS, with MOLT-4 leukemia, in the test on SK-MEL-2 melanoma, in the test with CCRF-CEM leukemia and in the test with HOP-62 NSCLC was greater than 100 µM throughout. Moreover, the TGI with DMS 114 small cell lung and with HCT-116 colon was greater than 100 µM throughout.
Regarding `CCOc1ccccc1NC(=O)C(=O)c1c(O)c2ccc(O)cc2oc1=O`, the TGI in the test on DLD-1 colon, in the test on SNB-75 CNS, in the test on MOLT-4 leukemia, in the test with SK-MEL-2 melanoma, in the test on CCRF-CEM leukemia and in the test with HOP-62 NSCLC was greater than 100 µM in each case. The same molecule registered a TGI in the test on HCT-116 colon greater than 100 µM.
With `CCCCCCCCC(=O)NCCN(CCN)C(=O)CCCCCCCC`, the TGI was 10.4 µM in the test with DLD-1 colon; 15.2 µM in the test on SNB-75 CNS; 8.57 µM with MOLT-4 leukemia; 30.1 µM with SK-MEL-2 melanoma; 8.19 µM in the test on CCRF-CEM leukemia; 24 µM in the test with HS 578T breast. In addition, the TGI in the test on PC-3 prostate turned out to be 25 µM; in the test with HOP-62 NSCLC it was 30.6 µM; in the test with DU-145 prostate it was 27.9 µM; in the test with DMS 114 small cell lung, 10.1 µM; in the test with HCT-116 colon it was 8.02 µM.
As to `CCCNC(=O)c1cc(NC(=O)c2cc(NC(=O)CCS(=O)(=O)OC)cn2C)cn1C`, the TGI in the test on SNB-75 CNS was 48.4 µM; with MOLT-4 leukemia it was greater than 87.8 µM; in the test on SK-MEL-2 melanoma, 53.8 µM; in the test with CCRF-CEM leukemia it was 3.67 µM; with HS 578T breast, greater than 100 µM; with PC-3 prostate it was 98.9 µM. Also, the TGI is greater than 53.1 µM in the test with HOP-62 NSCLC, 72.2 µM in the test on DU-145 prostate and greater than 69.8 µM in the test with HCT-116 colon.
With `COc1cc(C2SC(N)=Nc3c2c(C)nn3C(=O)c2ccc(Cl)cc2)ccc1O` (configuration not stated), the TGI with SNB-75 CNS, in the test on MOLT-4 leukemia, in the test on SK-MEL-2 melanoma, with CCRF-CEM leukemia, in the test with HS 578T breast and in the test on PC-3 prostate was greater than 10 µM in each case. Further, the TGI in the test on HOP-62 NSCLC, in the test on DU-145 prostate and with HCT-116 colon was greater than 10 µM each time.
For `C=[N+](CNC(=O)CNC(=O)C(Cc1ccccc1)NC(=O)OC(C)(C)C)C(=O)CNC(=O)C(Cc1ccccc1)NC(=O)OC(C)(C)C` (configuration not stated), the TGI in the test with SNB-75 CNS, with MOLT-4 leukemia, in the test with SK-MEL-2 melanoma, in the test on CCRF-CEM leukemia, in the test on HS 578T breast and with PC-3 prostate was greater than 100 µM in each case. Also, the TGI with HOP-62 NSCLC, with DU-145 prostate and in the test on HCT-116 colon was greater than 100 µM each time.
For the molecule `COC(=O)/C=C/N1CC1`, the TGI with SNB-75 CNS, with MOLT-4 leukemia, with SK-MEL-2 melanoma, in the test with CCRF-CEM leukemia, in the test on HS 578T breast and in the test with PC-3 prostate was greater than 10 µM each time. Moreover, the TGI in the test with HOP-62 NSCLC, in the test with DU-145 prostate and in the test with HCT-116 colon was greater than 10 µM each time.
Turning to `CC(=O)CC(=O)ON(C)C(=O)Cc1ccccc1`, the TGI in the test with DLD-1 colon, in the test with SNB-75 CNS, in the test with MOLT-4 leukemia, with CCRF-CEM leukemia, with HOP-62 NSCLC and in the test on DMS 114 small cell lung was greater than 100 µM each time. For the same molecule, the TGI in the test with HCT-116 colon is greater than 100 µM.
For `OCC1(CNc2cc(Cl)ncn2)CCC1`, the TGI in the test on SNB-75 CNS, in the test with MOLT-4 leukemia, with SK-MEL-2 melanoma, in the test with CCRF-CEM leukemia, with HS 578T breast and with PC-3 prostate was greater than 100 µM each time. The TGI in the test on HOP-62 NSCLC, with DU-145 prostate and with HCT-116 colon was greater than 100 µM each time.
Turning to `CSc1nc(Cl)c2c(n1)Sc1nc3ccccc3n1N=C2`, the TGI in the test with SNB-75 CNS is 71.5 µM; in the test with MOLT-4 leukemia, 63.2 µM; in the test on SK-MEL-2 melanoma, greater than 100 µM; in the test on CCRF-CEM leukemia, 46.2 µM; in the test on HS 578T breast, 62.1 µM; with PC-3 prostate it was 48 µM. Further, the TGI in the test on HOP-62 NSCLC, in the test with DU-145 prostate and with HCT-116 colon was greater than 100 µM each time.
On to `Cc1ccccc1NC(=O)CC(=O)n1nc(-c2ccccc2)c(N=Nc2ccc([N+](=O)[O-])cc2)c1-c1ccccc1`, for which the TGI is greater than 100 µM in the test on DLD-1 colon; greater than 100 µM with SNB-75 CNS; 64.8 µM with MOLT-4 leukemia; greater than 100 µM in the test with SK-MEL-2 melanoma; greater than 100 µM with CCRF-CEM leukemia; 48.3 µM in the test on HOP-62 NSCLC. In addition, the TGI with DMS 114 small cell lung worked out at 30.3 µM; in the test with HCT-116 colon, 31.5 µM.
For `CCOC(=O)c1c[nH]c2cc3c(cc2c1=O)CCS3`, the TGI in the test with SNB-75 CNS, with MOLT-4 leukemia, with SK-MEL-2 melanoma, in the test with CCRF-CEM leukemia, with HS 578T breast and with PC-3 prostate was greater than 100 µM throughout. The TGI in the test on HOP-62 NSCLC, in the test with DU-145 prostate and in the test on HCT-116 colon was greater than 100 µM each time.
Consider `Fc1ccc(C(OCCN2CCC3CCC(C2)N3C/C=C/c2cccnc2)c2ccc(F)cc2)cc1` (configuration not stated), for which the TGI in the test on SNB-75 CNS is 27.9 µM; in the test with MOLT-4 leukemia, 14.9 µM; in the test on SK-MEL-2 melanoma, 26.5 µM; in the test on CCRF-CEM leukemia, 17.5 µM; with HS 578T breast, 31.7 µM; with PC-3 prostate it was 21.8 µM. For the same molecule, the TGI in the test on HOP-62 NSCLC turned out to be 31 µM; in the test on DU-145 prostate it was 33.1 µM; with HCT-116 colon, 19 µM.

The values are drawn from PubChem BioAssay (NCI).
